The values below come from PMC11027065 (Analytical chemistry, 2020).

The target of the assay is T1, insulin-regulated aminopeptidase (IRAP, EC 3.4.11.3) (Rattus norvegicus, UniProt P97629).
T1 sequence (P97629 1-1025): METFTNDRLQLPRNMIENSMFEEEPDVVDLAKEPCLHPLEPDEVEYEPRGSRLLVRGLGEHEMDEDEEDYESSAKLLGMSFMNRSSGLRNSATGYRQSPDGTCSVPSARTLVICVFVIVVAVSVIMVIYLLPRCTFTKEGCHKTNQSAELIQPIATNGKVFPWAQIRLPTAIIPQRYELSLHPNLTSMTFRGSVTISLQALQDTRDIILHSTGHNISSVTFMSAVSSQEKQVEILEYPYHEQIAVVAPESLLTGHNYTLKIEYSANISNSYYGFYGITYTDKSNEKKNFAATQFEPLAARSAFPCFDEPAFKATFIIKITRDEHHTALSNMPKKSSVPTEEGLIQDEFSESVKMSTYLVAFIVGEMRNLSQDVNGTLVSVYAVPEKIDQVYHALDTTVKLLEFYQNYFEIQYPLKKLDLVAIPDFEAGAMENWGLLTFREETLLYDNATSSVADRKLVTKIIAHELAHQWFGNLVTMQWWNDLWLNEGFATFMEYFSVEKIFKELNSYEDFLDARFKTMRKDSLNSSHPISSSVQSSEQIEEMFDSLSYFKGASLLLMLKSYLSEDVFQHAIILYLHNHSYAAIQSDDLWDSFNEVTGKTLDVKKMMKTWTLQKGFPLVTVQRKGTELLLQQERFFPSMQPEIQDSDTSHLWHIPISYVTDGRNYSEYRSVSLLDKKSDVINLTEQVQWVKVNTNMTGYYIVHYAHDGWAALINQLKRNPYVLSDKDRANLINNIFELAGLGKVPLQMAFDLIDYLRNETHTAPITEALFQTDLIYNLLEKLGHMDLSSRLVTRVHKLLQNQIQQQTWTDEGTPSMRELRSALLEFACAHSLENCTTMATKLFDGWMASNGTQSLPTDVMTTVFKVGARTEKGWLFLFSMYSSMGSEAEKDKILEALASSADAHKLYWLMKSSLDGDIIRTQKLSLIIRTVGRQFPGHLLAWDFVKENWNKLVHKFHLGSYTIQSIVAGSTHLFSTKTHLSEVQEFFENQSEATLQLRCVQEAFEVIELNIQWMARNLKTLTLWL
The assay is described as follows: EOP-MD probe with cLC-MS2: effect of HFI-419 on LE hydrolysis in vivo. The conditions noted are these: 50 μM HFI-419; GGFL detected without inhibitor; data not shown.

In the case of `CCOC(=O)C1=C(NC(C)=O)Oc2cc(O)ccc2C1c1cccnc1` (stereo not shown) [HFI-419], the “product GGFL in dialysate during infusion of inhibitor” value was “undetected”.
